# Source: patent US20020045268A1, “MEASURING ANALYTES WITH METAL-LIGAND COMPLEX PROBES” (priority 1997, published 2002)
# Entries after “also recorded” stand apart in the source; their conditions may differ.
# How the values were obtained:
# Type in all cases: physicochemical
# [1] = pH-dependent intensity, phase and modulation data of FIG. 15 and emission spectrum of the dcbpy complex; settings: relative to Ru(bpy)3
# Source text: FIG. 15 graphically depicts data in connection with the metal-ligand complex [Ru(bpy)2 (dcbpy)]Cl4 showing pH-dependent intensity, phase and modulation data.
# The emission shift to longer wavelengths at low pH (FIG. 2) seems to be generally understandable in terms of the electronic properties of the excited MLCs. The long wavelength emission is thought to result from a metal-to-ligand charge transfer (MLCT) state in which an electron is donated from Ru to the ligand. The protonated form of deabpy is probably a better electron acceptor, lowering the energy of the MLCT state, shifting the emission to longer wavelengths and thereby decreasing the lifetime. […] Terpetschnig, E., H. Szmacinski, H. Malak and J. R. Lakowicz. Biophys. J., 68:342-350; Fluorescence Polarization Immunoassay of a High Molecular Weight Antigen Based on a Long-Lifetime Ru-Ligand Complex (1995). Terpetschnig, E., H. Szmacinski and J. R. Lakowicz. Anal. Biochem., 227:140-147].
# The dcbpy ligand is probably a better electron acceptor than bpy. […] It could be used at a pH in the range of pH 2 to 5.
# [2] = pH-dependent fluorescence emission spectra and intensities in buffers
# Method: (§1) Ru(bpy)2 (deabpy) (PF6)2 solutions at different pH value were prepared by dissolving equal amount of aqueous Ru(bpy)2 (deabpy) (PF6)2 in different buffer solutions. From pH 2 to pH 4.7, we used citrate buffer; from pH 4.8 to pH 6.3 we used acetate buffer; from pH 6.4 to pH 7.8 we used phosphate buffer; from pH 7.8 to pH 9.0 we used tris buffer, from pH 9.2 to pH 11 we used carbonate/bicarbonate buffer, from pH 11 to pH 12 we used dibasic sodium phosphate/sodium hydroxide buffer. Unless stated otherwise the buffer concentrations were 20 mM and contained 0.1 M potassium chloride to maintain ionic strength.
# The fluorescence emission spectra were measured using Aminco Bowman Series AB2 Luminescence Spectrometer with the excitation wavelength of 414 nm. […] The emission intensity ratios (620 nm/650 nm) of the different sample were also recorded.
# [3] = pH-dependent absorption at 450 nm (ground state pKa); settings: from changes in absorption at 450 nm
# Method: Chemicals and solvents were purchased from Aldrich and used without further purification. Absorption spectra were measured using a Perkin Elmer lambda 6 UV/Vis spectrophotometer. Observed were two isosbestic points at 414 nm and 475 nm. The absorbance at 450 nm of different samples were measured to obtain the ground state pKa.
# as §1
# [4] = frequency-domain intensity decay (lifetime) measurements, single and global multi-exponential analysis
# Source text: For the phase/modulation measurements (FIGS. 6-9), an air-cooled Argon ion laser (output at 488 nm) was used as the excitation light source, and the modulation frequency was set at 700 kHz. On the emission side, a long-wave pass filter was used to collect the fluorescence with wavelength longer than 600 nm. The reference solution used here was an aqueous solution of Texas Red with a reference lifetime of 4 ns. For the lifetime measurements, we used the same instrumentation and reference solution, and 23 different modulation frequencies ranging from 11 kHz to 2 MHZ.
# Single and multi-exponential intensity decays were recovered from the multi-frequency data as described previously [see, Construction and Performance of a Variable-Frequency Phase-Modulation Fluorometer (1985). Lakowicz, J. R. and B. P. Maliwal. Biophys. Chem., 21:61-78; Frequency-Domain Fluorescence Spectroscopy (1991) in Topics in Fluorescence Spectroscopy, Vol. 1: Techniques, (Lakowicz, J. R., Ed.). Plenum Press, New York, pp. 293-355]. The data were analyzed globally in terms of the multi-exponential model [formula]
# where Ik(t) are the intensity decays at each pH (k) value, Ti are the decay times and αik are the amplitudes. For the global analysis we assumed that the αik values would depend on pH, but that the two lifetimes would be independent of pH. The goodness-of-fit was judged by the usual XR^2 criterion with assumed uncertainties in phase δp=0.2° and modulation δm=0.005.
smiles,measurement,setting,value
O=C(O)c1ccnc(-c2cc(C(=O)O)ccn2)c1.[Ru+2].c1ccc(-c2ccccn2)nc1.c1ccc(-c2ccccn2)nc1 [[Ru(dcbpy)(bpy)2]^2+],emission spectrum shift,[1],red shift
CCN(CC)Cc1ccnc(-c2cc(CN(CC)CC)ccn2)c1.[Ru+2].c1ccc(-c2ccccn2)nc1.c1ccc(-c2ccccn2)nc1 [[Ru(deabpy)(bpy)2]^2+],dependence of apparent pKa on ionic strength / buffer concentration,"[2]; 20, 50 and 100 mM phosphate buffer",not found to be dependent on ionic strength; also recorded: same apparent pKa values
same,emission maximum,"[2]; acidic sample (low pH), excitation 414 nm",650 nm
same,increase of emission spectrum,[2]; as pH increases from 2.52 to 11.8,about 3 fold
same,emission maximum,"[2]; basic sample, excitation 414 nm",620 nm
same,apparent pKa observed by fluorescence,"[2]; pH-dependent fluorescence intensities, excitation 414 nm",~7.5
same,ground state pKa,[3],7.14
same,mean decay time,[4]; high pH,~390 ns
same,mean decay time,"[4]; low pH, protonated amino groups",~240 ns
same,"α1, amplitude of 235 ns component, global analysis",[4]; pH 2.4,0.964
same,"α2, amplitude of 380 ns component, global analysis",[4]; pH 2.4,0.036
same,"τ2 (ns), global analysis",[4]; pH 2.4,380 ns
same,"τi (ns), global analysis",[4]; pH 2.4,235 ns
same,"τ(ns), single decay time analysis",[4]; pH 2.40,236 ns
same,"α1, amplitude of 235 ns component, global analysis",[4]; pH 5.8,0.893
same,"α2, amplitude of 380 ns component, global analysis",[4]; pH 5.8,0.107
same,"τ2 (ns), global analysis",[4]; pH 5.8,380 ns
same,"τi (ns), global analysis",[4]; pH 5.8,235 ns
same,"τ(ns), single decay time analysis",[4]; pH 5.89,252 ns
same,"α1, amplitude of 235 ns component, global analysis",[4]; pH 6.91,0.828
same,"α2, amplitude of 380 ns component, global analysis",[4]; pH 6.91,0.172
same,"τ2 (ns), global analysis",[4]; pH 6.91,380 ns
same,"τ(ns), single decay time analysis",[4]; pH 6.91,262 ns
same,"τi (ns), global analysis",[4]; pH 6.91,235 ns
same,"α1, amplitude of 235 ns component, global analysis",[4]; pH 7.45,0.687
same,"α2, amplitude of 380 ns component, global analysis",[4]; pH 7.45,0.313
same,"τ2 (ns), global analysis",[4]; pH 7.45,380 ns
same,"τ(ns), single decay time analysis",[4]; pH 7.45,284 ns
same,"τi (ns), global analysis",[4]; pH 7.45,235 ns
same,"α1, amplitude of 235 ns component, global analysis",[4]; pH 8.02,0.380
same,"α2, amplitude of 380 ns component, global analysis",[4]; pH 8.02,0.620
same,"τ2 (ns), global analysis",[4]; pH 8.02,380 ns
same,"τ(ns), single decay time analysis",[4]; pH 8.02,327 ns
same,"τi (ns), global analysis",[4]; pH 8.02,235 ns
same,"α1, amplitude of 235 ns component, global analysis",[4]; pH 13.5,0
same,"α2, amplitude of 380 ns component, global analysis",[4]; pH 13.5,1.0
same,"τ2 (ns), global analysis",[4]; pH 13.5,380 ns
same,"τ(ns), single decay time analysis",[4]; pH 13.5,392 ns
same,"τi (ns), global analysis",[4]; pH 13.5,235 ns
same,"decay time, global analysis",[4]; protonated form,235 ns
same,"decay time, global analysis",[4]; unprotonated form,380 ns
